{"source": "patent US20260294849A1", "about": "“METHODS FOR TREATING CORNEAL INJURIES” (National Taiwan University, priority 2023, published 2026)", "assay_type_in_all_cases": "in vivo, mice (nT/nG transgenic)", "key": {"laser-injured cornea": {"system": "laser-injured cornea", "experiment": "Corneal observation (opacity, edema, ulcer formation, ocular surface) via gross images after laser ablation and intracameral injection", "details": "for Ocular surface of the eye: Day 2 after laser ablation and intracameral injection, BSS group: mild inflammation and irritation; for Edema / Opacity / Ulcer formation: laser-injured cornea after treatment, single intracameral injection 0.5 μl, Day 2; for Edema: BSS group: mild edema; for Opacity: BSS group: slight opacity; for Ulcer formation: BSS group: slight ulcer formation", "from_the_text": "(§1) nT/nG transgenic mice (Jax #023035; the Jackson Laboratory), having a Cre-reporter allele comprising a cell nuclear-targeted tandem dimerTomato (tdTomato; an orange fluorescent protein) and an enhanced green fluorescent protein (EGFP) (Prigge, Wiley et al., 2013; “Nuclear double-fluorescent reporter for in vivo and ex vivo analyses of biological transitions in mouse nuclei.”), were used in the present study for investigating the cell density and the healing process in corneal endothelium. The mice were characterized in that, prior to Cre recombination, widespread fluorescence expression of tdTomato (localized to the cell nucleus) was observed; whereas following Cre recombination, nuclear-localized green fluorescence was detected. All procedures on mice were approved by and performed in accordance with the Institutional Animal Care and Use Committees of National Taiwan University.\n(§2) To eliminate the corneal endothelial cells, the multiphoton femtosecond laser was employed to induce cell ablation due to its ability to precisely control cell ablation in time and space with minimal injury made to adjacent tissues (Rompolas, Deschene et al., 2012; “Live imaging of stem cell and progeny behaviour in physiological hair-follicle regeneration.”). Once the corneal endothelial cells needed to be removed were identified, laser ablation was performed on the selected area (50 μm×50 μm) with a 880 nm laser wavelength and a 500 mW laser power in a single scan, with repeatedly adjusting the laser along the z-axis to achieve optimal results.\n(§3) Following laser ablation, the aforementioned drugs were intracamerally injected to the cornea of the mice immediately using a customized needle attached to a 5 μl syringe (Hamilton). To avoid the motion, a cotton swab was used to prop the eyeball during the intracameral injection above on the peripheral region of the cornea. Each eye was slowly applied with a single dose of 0.5 μl different drugs.\nThe test compound(s) was/were intracamerally administered to the mice following laser ablation of the cornea, and then the corneal opacity was initially evaluated via gross images of the cornea."}, "[1]": {"system": "corneal endothelial cells", "experiment": "Corneal endothelial cell density after laser ablation (confocal cell counting)", "details": "for Corneal endothelial cell density: day 2 after laser ablation, intracameral injection, means±SEM, Control 728.5 ± 55.01, BSS 633 ± 33.7; for Protection of the corneal endothelial cells against injuries: order: Formoterol Sulfate>Formoterol PG>Formoterol BG>Formoterol>THBP>Permethrin>Fenbutrazate>Levonordefrin>Encainide>Bhilawanol A", "from_the_text": "as §1, §2, §3\nThe mice were anesthesia and sacrificed on day 2 after laser ablation with the indicated treatments administered (as shown in FIGS. 1-3), and their eyes were enucleated and fixed in 4% paraformaldehyde (PFA) at 4° C. overnight. After dissecting the cornea from the eyeball, the cornea was cut into a four-petal shape, placed on glass slides, mounted with a mounting medium (Vector), and immobilized by using a coverslip. All the fluorescent images were acquired by a SP8 confocal microscope (Leica), with steps set at 1 μm per z-section for a 20× objective. The cell nuclear ware manually segmented by using spot plugin in Imaris (Oxford instruments). For each sample, a circle area with a diameter of 300 μm was selected to count the cell numbers, so as to quantify the cell density in different drug treatments.\nAll the experimental data were performed by Prism and represented as means±SEM. The statistical significance of difference between the experimental groups was evaluated by Student's t test. P values<0.05 were considered statistically significant.\nThe protective effect of the present compound(s) on the corneal endothelial cells against injuries was evaluated by counting the cell number and/or the density of the corneal endothelial cells, instead of the keratocytes in corneal stroma or the other cell populations in trabecular meshwork."}, "[2]": {"system": "corneal endothelial cells", "experiment": "Corneal wound healing by multiphoton microscopy (intravital imaging) after laser ablation", "details": "intracameral injection; for Corneal wound healing, Day 1: Day 1 after laser ablation, BSS group could not seal the wound defects; for Corneal wound healing, Day 2: Day 2 after laser ablation, BSS group: compromised integrity until Day 2", "from_the_text": "as §1\nFor live image acquisition, mice were anesthetized by intramuscular injection of 50-80 mg/kg Zoletil (Virbac). The corneal surface was anesthetized with 0.4% oxybuprocaine hydrochloride (Sigma) in saline. An eye holder was used to minimize artifacts during intravital imaging, as previously described (Wu, Wang et al., 2019; “Intravital multiphoton microscopic imaging platform for ocular surface imaging.”). Intravital imaging was performed using a laser wavelength of 880 nm for tdTomato excitation and a laser power of approximately 35 mW at the sample plane to optimize the image quality without photobleaching. A water-immersion 20×/NA1.0 objective lens (Olympus) was used to focus the laser light onto the eyes, after the laser light was reflected by the main dichroic mirror (Semrock). The tdTomato signals were spectrally separated using a bandpass filter of 585/40 nm (Semrock). To prevent dryness of the ocular surface during imaging, an eye gel (Vidisic Gel, Dr. Gerhard Mann Chem-Pharm) with a refractive index of 1.338 was used as an immersion medium on the cornea. Image stacks along the z-axis with a step size of 1 μm were acquired, and the dimensions of the images acquired in this study were 512×512 pixels.\nas §2, §3\nThe efficacy of the tested drugs in promoting the corneal wound healing was investigated by a multiphoton microscopy analysis, in which changes in the wound site following drug injection was tracked."}}, "note": "“Also recorded” adds a separate entry of the source. Counter-ions that a name gives are not always drawn."}
{"compound": "2,2,4,4-Tetrahydroxybenzophenone [THBP]", "values": [{"measurement": "Ocular surface of the eye", "setting": "laser-injured cornea", "result": "maintained the ocular surface of the eye moist and transparent"}, {"measurement": "Edema", "setting": "laser-injured cornea", "result": "No"}, {"measurement": "Opacity", "setting": "laser-injured cornea", "result": "No"}, {"measurement": "Ulcer formation", "setting": "laser-injured cornea", "result": "No"}, {"measurement": "Corneal endothelial cell density", "setting": "[1]", "result": "724 ± 12.8 cell number/the area of a circ"}, {"measurement": "Protection of the corneal endothelial cells against injuries", "setting": "[1]", "result": "protected the corneal endothelial cells"}, {"measurement": "Corneal wound healing, Day 1", "setting": "[2]; 6 μM", "result": "accelerated wound healing and sealed the defects on Day 1"}]}
{"compound": "CCCCCC/C=C\\CCCCCCCc1cccc(O)c1O", "note": "[Bhilawanol A]", "values": [{"measurement": "Ocular surface of the eye", "setting": "laser-injured cornea", "result": "maintained the ocular surface of the eye moist and transparent"}, {"measurement": "Edema", "setting": "laser-injured cornea", "result": "No"}, {"measurement": "Opacity", "setting": "laser-injured cornea", "result": "No"}, {"measurement": "Ulcer formation", "setting": "laser-injured cornea", "result": "No"}, {"measurement": "Corneal endothelial cell density", "setting": "[1]", "result": "674.3 ± 8 cell number/the area of a circ"}, {"measurement": "Protection of the corneal endothelial cells against injuries", "setting": "[1]", "result": "protected the corneal endothelial cells"}, {"measurement": "Corneal wound healing, Day 2", "setting": "[2]; 30 μM (238.875 ng/kg)", "result": "promoted wound healing on Day 2"}]}
{"compound": "COc1ccc(C(=O)Nc2ccccc2CCC2CCCCN2C)cc1", "note": "(stereo not drawn) [Encainide, reference compound]", "values": [{"measurement": "Ocular surface of the eye", "setting": "laser-injured cornea", "result": "maintained the ocular surface of the eye moist and transparent"}, {"measurement": "Edema", "setting": "laser-injured cornea", "result": "No"}, {"measurement": "Opacity", "setting": "laser-injured cornea", "result": "No"}, {"measurement": "Ulcer formation", "setting": "laser-injured cornea", "result": "No"}, {"measurement": "Corneal endothelial cell density", "setting": "[1]", "result": "690 ± 8.8 cell number/the area of a circ"}, {"measurement": "Protection of the corneal endothelial cells against injuries", "setting": "[1]", "result": "protected the corneal endothelial cells"}, {"measurement": "Corneal wound healing, Day 2", "setting": "[2]; 6 μM", "result": "promoted wound healing on Day 2"}]}
{"compound": "CCC(C(=O)OCCN1CCOC(c2ccccc2)C1C)c1ccccc1", "note": "(stereo not drawn) [Fenbutrazate, reference compound]", "values": [{"measurement": "Ocular surface of the eye", "setting": "laser-injured cornea", "result": "maintained the ocular surface of the eye moist and transparent"}, {"measurement": "Edema", "setting": "laser-injured cornea", "result": "No"}, {"measurement": "Opacity", "setting": "laser-injured cornea", "result": "slightly hazy spot formation; also recorded: Slight hazy"}, {"measurement": "Ulcer formation", "setting": "laser-injured cornea", "result": "No"}, {"measurement": "Corneal endothelial cell density", "setting": "[1]", "result": "720.8 ± 14.9 cell number/the area of a circ"}, {"measurement": "Protection of the corneal endothelial cells against injuries", "setting": "[1]", "result": "protected the corneal endothelial cells"}, {"measurement": "Corneal wound healing, Day 2", "setting": "[2]; 6 μM", "result": "promoted wound healing on Day 2"}]}
{"compound": "COc1ccc(CC(C)NCC(OC2O[C@H](C(=O)O)[C@@H](O)[C@H](O)[C@H]2O)c2ccc(O)c(NC=O)c2)cc1", "note": "(stereo partly drawn) [Formoterol BG, Formoterol Benzyl Glucuronide]", "values": [{"measurement": "Ocular surface of the eye", "setting": "laser-injured cornea", "result": "maintained the ocular surface of the eye moist and transparent"}, {"measurement": "Edema", "setting": "laser-injured cornea", "result": "No"}, {"measurement": "Opacity", "setting": "laser-injured cornea", "result": "No"}, {"measurement": "Ulcer formation", "setting": "laser-injured cornea", "result": "No"}, {"measurement": "Corneal endothelial cell density", "setting": "[1]", "result": "796 ± 24.9 cell number/the area of a circ"}, {"measurement": "Protection of the corneal endothelial cells against injuries", "setting": "[1]", "result": "protected the corneal endothelial cells"}, {"measurement": "Corneal wound healing, Day 2", "setting": "[2]; 6 μM", "result": "promoted wound healing on Day 2"}]}
{"compound": "COc1ccc(C[C@@H](C)NC[C@H](O)c2ccc(O[C@@H]3O[C@H](C(=O)O)[C@@H](O)[C@H](O)[C@H]3O)c(NC=O)c2)cc1", "note": "[Formoterol PG, Formoterol Phenolic Glucuronide]", "values": [{"measurement": "Ocular surface of the eye", "setting": "laser-injured cornea", "result": "maintained the ocular surface of the eye moist and transparent"}, {"measurement": "Edema", "setting": "laser-injured cornea", "result": "No"}, {"measurement": "Opacity", "setting": "laser-injured cornea", "result": "No"}, {"measurement": "Ulcer formation", "setting": "laser-injured cornea", "result": "No"}, {"measurement": "Corneal endothelial cell density", "setting": "[1]", "result": "799.5 ± 23.56 cell number/the area of a circ"}, {"measurement": "Protection of the corneal endothelial cells against injuries", "setting": "[1]", "result": "protected the corneal endothelial cells"}, {"measurement": "Corneal wound healing, Day 2", "setting": "[2]; 6 μM", "result": "promoted wound healing on Day 2"}]}
{"compound": "COc1ccc(C[C@@H](C)NC[C@H](O)c2ccc(OS(=O)(=O)O)c(NC=O)c2)cc1", "note": "[Formoterol Sulfate]", "values": [{"measurement": "Ocular surface of the eye", "setting": "laser-injured cornea", "result": "maintained the ocular surface of the eye moist and transparent"}, {"measurement": "Edema", "setting": "laser-injured cornea", "result": "No"}, {"measurement": "Opacity", "setting": "laser-injured cornea", "result": "No"}, {"measurement": "Ulcer formation", "setting": "laser-injured cornea", "result": "No"}, {"measurement": "Corneal endothelial cell density", "setting": "[1]", "result": "805.25 ± 22.3 cell number/the area of a circ"}, {"measurement": "Protection of the corneal endothelial cells against injuries", "setting": "[1]", "result": "protected the corneal endothelial cells"}, {"measurement": "Corneal wound healing, Day 2", "setting": "[2]; 6 μM", "result": "promoted wound healing on Day 2"}]}
{"compound": "C[C@H](N)[C@H](O)c1ccc(O)c(O)c1", "note": "[Levonordefrin, reference compound]", "values": [{"measurement": "Ocular surface of the eye", "setting": "laser-injured cornea", "result": "maintained the ocular surface of the eye moist and transparent"}, {"measurement": "Edema", "setting": "laser-injured cornea", "result": "No"}, {"measurement": "Opacity", "setting": "laser-injured cornea", "result": "No"}, {"measurement": "Ulcer formation", "setting": "laser-injured cornea", "result": "No"}, {"measurement": "Corneal endothelial cell density", "setting": "[1]", "result": "710.5 ± 41.7 cell number/the area of a circ"}, {"measurement": "Protection of the corneal endothelial cells against injuries", "setting": "[1]", "result": "protected the corneal endothelial cells"}, {"measurement": "Corneal wound healing, Day 1", "setting": "[2]; 6 μM", "result": "accelerated wound healing and sealed the defects on Day 1"}]}
{"compound": "CC1(C)C(C=C(Cl)Cl)C1C(=O)OCc1cccc(Oc2ccccc2)c1", "note": "(stereo not drawn) [Permethrin, reference compound]", "values": [{"measurement": "Ocular surface of the eye", "setting": "laser-injured cornea", "result": "maintained the ocular surface of the eye moist and transparent"}, {"measurement": "Edema", "setting": "laser-injured cornea", "result": "No"}, {"measurement": "Opacity", "setting": "laser-injured cornea", "result": "No"}, {"measurement": "Ulcer formation", "setting": "laser-injured cornea", "result": "No"}, {"measurement": "Corneal endothelial cell density", "setting": "[1]", "result": "721.8 ± 12.9 cell number/the area of a circ"}, {"measurement": "Protection of the corneal endothelial cells against injuries", "setting": "[1]", "result": "protected the corneal endothelial cells"}, {"measurement": "Corneal wound healing, Day 2", "setting": "[2]; 6 μM", "result": "promoted wound healing on Day 2"}]}
